Laboratory results taken from ChEMBL document CHEMBL1137511, “Identification of a series of novel derivatives as potent HCV inhibitors by a ligand-based virtual screening optimized procedure” (Bioorg Med Chem, 2007).

Assay: Inhibition of HCV genotype 1 polymerase
Design: species or system Hepacivirus hominis

CNS(=O)(=O)Nc1ccc2c(c1)S(=O)(=O)N=C(c1c(O)c3cccnc3n(NC3CCC3)c1=O)N2
IC50: 87000 nM

O=c1c(C2=NS(=O)(=O)c3cc(Br)ccc3N2)c(O)c2cccnc2n1Cc1ccccc1
IC50: 16800 nM

CC(C)CCn1c(=O)c(C2=NS(=O)(=O)c3cc(NS(=O)(=O)N4CCCC4)ccc3N2)c(O)c2cccnc21
IC50: 27 nM

CNS(=O)(=O)Nc1ccc2c(c1)S(=O)(=O)NC(c1c(O)c3cccnc3n(CCC(C)C)c1=O)=N2
IC50: 14 nM

CCCOc1ccc2c(c1)S(=O)(=O)NC(c1c(O)c3cccnc3n(CCC(C)C)c1=O)=N2
IC50: 1620 nM

O=c1c(C2=NS(=O)(=O)c3cccc(Br)c3N2)c(O)c2cccnc2n1Cc1ccccc1
IC50: 6200 nM

C#CCOC(=O)NS(=O)(=O)Nc1ccc2c(c1)S(=O)(=O)N=C(c1c(O)c3cccnc3n(CCC(C)C)c1=O)N2
IC50: 72 nM

CC(C)CCn1c(=O)c(C2=NS(=O)(=O)c3cc(NS(C)(=O)=O)ccc3N2)c(O)c2cccnc21
IC50: 2 nM

CC(C)CCn1c(=O)c(C2=NS(=O)(=O)c3cc(NS(=O)(=O)NC(=O)OCc4ccccc4)ccc3N2)c(O)c2cccnc21
IC50: 58 nM

O=c1c(C2=NS(=O)(=O)c3ccccc3N2)c(O)c2ccccc2n1NCC1CC1
IC50: 285 nM

CC(C)CCn1c(=O)c(C2=NS(=O)(=O)c3cc(NCC#N)ccc3N2)c(O)c2cccnc21
IC50: 120 nM

O=c1c(C2=NS(=O)(=O)c3ccccc3N2)c(O)c2ccccc2n1NCC1CCCC1
IC50: 747 nM

COc1ccc(CNS(=O)(=O)Nc2ccc3c(c2)S(=O)(=O)N=C(c2c(O)c4cccnc4n(CCC(C)C)c2=O)N3)cc1
IC50: 10 nM

CC(C)CCn1c(=O)c(C2=NS(=O)(=O)c3cc(OCC(=O)N(C)C)ccc3N2)c(O)c2cccnc21
IC50: 934 nM
